Laboratory results published in paper PMC10873978, “Novel tetrahydroisoquinolines as DHFR and CDK2 inhibitors: synthesis, characterization, anticancer activity and antioxidant properties” (BMC Chemistry, 2024).
Read-outs that look alike come from different tables or passages of the source.

Legend:
A549 cell line = test: In vitro cytotoxic activity, MTT method, A549
Method: (§1) Cell lines: The in vitro human breast cancerous cell line (MCF7), lung cancerous cell lines (A549) and normal cell lines were purchased from Serum and Vaccine formulation in Cairo-Egypt.
(§2) In vitro cytotoxic activity of all synthesized compounds against two human breast cell line (MCF7) and lung cell lines (A549) was evaluated according to the MTT method. Firstly, Growth the cell line medium in 96 well tissue culture plate was injected with 10^5 cells/mL (100 uL/plate well) of the cell line and incubated at 37 °C for 24 h to develop a monolayer sheet then the formed growth medium was poured from 96 well microtiter plates after the confluent sheet of cells. […] Secondly, add 0.1 mL of each concentration tetrahydroisoquinoline sample to each plate. The plates were incubated at 37 °C. Thirdly MTT solution (5 mg/mL in PBS) is prepared. Add 20 µL of MTT solution to each well plates. And shaking in 150 rpm for 5 min, to mix the MTT into the media. Then incubate at (37 °C, 5% CO2) for 1–5 h. Finally read the optical density at 560 nm and subtract background at 620 nm.
(§3) In this work, doxorubicin was used as a positive control drug for comparison with the synthesized compounds under the same experimental conditions.

MCF7 cell line = test: In vitro cytotoxic activity, MTT method, MCF7; assay type: cell-based, human
Method: as §1, §2, §3

CC(=O)C1C(c2ccc(N(C)C)cc2)c2c(C)nc3sc(C(=O)Nc4ccc(C)cc4)c(N)c3c2CC1(C)O (centres unmarked) [Compound 8b, 7-Acetyl-1-amino-5,8-dimethyl-8-hydroxy-6-(4-N,N-dimethylaminophenyl)-N-(4-tolyl)-6,7,8,9-tetrahydrothieno[2,3-c]isoquinoline-2-carboxamide]
Toxicity % (A549 cell line; A549, Conc. 0.04875 µMol): 8.929%
Toxicity % (A549 cell line; A549, Conc. 0.0975 µMol): 10.49%
Toxicity % (A549 cell line; A549, Conc. 0.195 µMol): 12.58%
Viability % (A549 cell line; A549, Conc. 0.195 µMol): 87.42%
Toxicity % (A549 cell line; A549, Conc. 0.391 µMol): 21.42%
Viability % (A549 cell line; A549, Conc. 0.391 µMol): 78.58%
Toxicity % (A549 cell line; A549, Conc. 0.781 µMol): 51.95%
Viability % (A549 cell line; A549, Conc. 0.781 µMol): 48.05%
Toxicity % (A549 cell line; A549, Conc. 1.562 µMol): 61.42%
Viability % (A549 cell line; A549, Conc. 1.562 µMol): 38.58%
Toxicity % (A549 cell line; A549, Conc. 3.125 µMol): 70.69%
Viability % (A549 cell line; A549, Conc. 3.125 µMol): 29.31%
Toxicity % (A549 cell line; A549, Conc. 6.25 µMol): 84.3%
Viability % (A549 cell line; A549, Conc. 6.25 µMol): 15.7%
Toxicity % (A549 cell line; A549, Conc. 12.5 µMol): 93.25%
Viability % (A549 cell line; A549, Conc. 12.5 µMol): 6.746%
Toxicity % (A549 cell line; A549, Conc. 25 µMol): 96.06%
Viability % (A549 cell line; A549, Conc. 25 µMol): 3.945%
IC50 (A549 cell line; Homo sapiens, read-out: IC50 ± SD): 527 ± 2 nM
IC50 (MCF7 cell line; Homo sapiens, MCF7, MCF7 cell line, MTT): 3.8 ± 0.008 µM
Toxicity % (MCF7 cell line; MCF7, Conc. 0.0487 µMol): 0.0678%
Viability % (MCF7 cell line; MCF7, Conc. 0.0487 µMol): 99.9322%
Toxicity % (MCF7 cell line; MCF7, Conc. 0.0975 µMol): 0.1234%
Viability % (MCF7 cell line; MCF7, Conc. 0.0975 µMol): 99.8766%
Toxicity % (MCF7 cell line; MCF7, Conc. 0.195 µMol): 0.2042%
Viability % (MCF7 cell line; MCF7, Conc. 0.195 µMol): 99.8%
Toxicity % (MCF7 cell line; MCF7, Conc. 0.391 µMol): -0.2042%
Viability % (MCF7 cell line; MCF7, Conc. 0.391 µMol): 100.2%
Toxicity % (MCF7 cell line; MCF7, Conc. 0.781 µMol): 2.124%
Viability % (MCF7 cell line; MCF7, Conc. 0.781 µMol): 97.88%
Toxicity % (MCF7 cell line; MCF7, Conc. 1.562 µMol): 13.36%
Viability % (MCF7 cell line; MCF7, Conc. 1.562 µMol): 86.64%
Toxicity % (MCF7 cell line; MCF7, Conc. 3.125 µMol): 24.63%
Viability % (MCF7 cell line; MCF7, Conc. 3.125 µMol): 75.37%
Toxicity % (MCF7 cell line; MCF7, Conc. 6.25 µMol): 60.13%
Viability % (MCF7 cell line; MCF7, Conc. 6.25 µMol): 39.87%
Toxicity % (MCF7 cell line; MCF7, Conc. 12.5 µMol): 88.07%
Viability % (MCF7 cell line; MCF7, Conc. 12.5 µMol): 11.93%
Toxicity % (MCF7 cell line; MCF7, Conc. 25 µMol): 96.69%
Viability % (MCF7 cell line; MCF7, Conc. 25 µMol): 3.309%

COc1cccc2c1C(=O)c1c(O)c3c(c(O)c1C2=O)C[C@@](O)(C(=O)CO)C[C@@H]3O[C@H]1C[C@H](N)[C@H](O)[C@H](C)O1 [Douxrbicin]
IC50 (A549 cell line; A549): 218 nM
Toxicity % (A549 cell line; A549, Conc. 0.0487 µMol): 20%
Viability % (A549 cell line; A549, Conc. 0.0487 µMol): 80%
Viability % (A549 cell line; A549, Conc. 0.0975 µMol): 73.2%
Toxicity % (A549 cell line; A549, Conc. 0.195 µMol): 36.33%
Viability % (A549 cell line; A549, Conc. 0.195 µMol): 63.67%
Toxicity % (A549 cell line; A549, Conc. 0.391 µMol): 62.45%
Viability % (A549 cell line; A549, Conc. 0.391 µMol): 37.55%
Viability % (A549 cell line; A549, Conc. 0.781 µMol): 20.26%
Toxicity % (A549 cell line; A549, Conc. 1.562 µMol): 89.84%
Viability % (A549 cell line; A549, Conc. 1.562 µMol): 10.16%
Toxicity % (A549 cell line; A549, Conc. 3.125 µMol): 93.56%
Viability % (A549 cell line; A549, Conc. 3.125 µMol): 6.44%
Toxicity % (A549 cell line; A549, Conc. 6.25 µMol): 95.35%
Viability % (A549 cell line; A549, Conc. 6.25 µMol): 4.651%
Toxicity % (A549 cell line; A549, Conc. 12.5 µMol): 97.9%
Viability % (A549 cell line; A549, Conc. 12.5 µMol): 2.1%
Toxicity % (A549 cell line; A549, Conc. 25 µMol): 98.9%
Viability % (A549 cell line; A549, Conc. 25 µMol): 1.1%
